Tests used:
downy bromegrass [1] = assay: Test E pre-/postemergence herbicide test; type: in vivo, Bromus tectorum
In short: (§1)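 Ratings from 0 (no effect) to 100 (complete control) were assigned by visual comparison with untreated plants 12 to 14 days after application. Test chemicals, formulated with surfactant in a non-phytotoxic solvent blend, were applied to soil after planting or to foliage of 2–18 cm plants.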

tropical spiderwort = assay: Test E pre-/postemergence herbicide test; type: in vivo, Commelina benghalensis
In short: as §1

annual bluegrass = assay: Test E pre-/postemergence herbicide test; type: in vivo, Poa annua
In short: as §1

Russian thistle = assay: Test E pre-/postemergence herbicide test; type: in vivo, Salsola kali; settings: Preemergence
Source text: Seeds of plant species selected from bipinnate beggarticks (Bidens bipinnata L.), hairy beggarticks (Bidens radiata Thuill.), bermudagrass (Cynodon dactylon (L.) Pers.), Surinam grass (Urochloa decumbens (Staph) R. D. Webster, previously named Brachiaria decumbens Stapf), large crabgrass (Digitaria sanguinalis (L.) Scop.), green foxtail (Setaria viridis (L.) P. Beauv.), goosegrass (Eleusine indica (L.) Gaertn.), johnsongrass (Sorghum halepense (L.) Pers.), kochia (Kochia scoparia (L.) Schrad.), pitted morningglory (Ipomoea lacunosa L.), purple nutsedge (Cyperus rotundus L.), common ragweed (Ambrosia elatior L.), mustard (Brassica nigra (L.) W. D. J. Koch), guineagrass (Panicum maximum Jacq.), dallisgrass (Paspalum dilatatum Poir.), barnyardgrass (Echinochloa crus-galli (L). P. Beauv.), southern sandbur (Cenchrus echinatus L.), common sowthistle (Sonchus oleraceous L.), prickly sida (Sida spinosa L.), Italian ryegrass (Lolium multiflorum Lam.), common purslane (Portulaca oleracea L.), broadleaf signalgrass (Brachiaria platyphylla (Griseb.) Nash), common groundsel (Senecio vulgaris L.), common chickweed (Stellaria media (L.) Vill/Cyr.), tropical spiderwort (Commelina benghalensis L.), annual bluegrass (Poa annua L.), downy bromegrass (Bromus tectorum L.), itchgrass (Rottboellia cochinchinensis (L.) L.f.), quackgrass (Elytrigia repens (L.) Nevski), Canada horseweed (Erigeron Canadensis L.), field bindweed (Convolvulus arvensis L.), spotted spurge (Euphorbia maculata L.), common mallow (Malva sylvestris (=s silvestris) L.), and Russian thistle (Salsola kali L. ssp. Ruthenica (Iljin) Soo) were planted and treated preemergence with test chemicals formulated in a non-phytotoxic solvent mixture which included a surfactant.
At the same time, plants selected from these weed species were treated with postemergence applications of some of the test chemicals formulated in the same manner. Plants ranged in height from 2 to 18 cm (1- to 4-leaf stage) for postemergence treatments. Treated plants and controls were maintained in a greenhouse for 12 to 14 days, after which time all species were compared to controls and visually evaluated. Plant response ratings, summarized in Table E, are based on a scale of 0 to 100 where 0 is no effect and 100 is complete control. A dash (-) response means no test result.

pitted morningglory = assay: Test E pre-/postemergence herbicide test; type: in vivo, Ipomoea lacunosa
In short: as §1

goosegrass = assay: Test E pre-/postemergence herbicide test; type: in vivo, Eleusine indica
In short: as §1

mustard = assay: Test E pre-/postemergence herbicide test; type: in vivo, Brassica nigra
In short: as §1

johnsongrass = assay: Test E pre-/postemergence herbicide test; type: in vivo, Sorghum halepense
In short: as §1

common mallow = assay: Test E pre-/postemergence herbicide test; type: in vivo, Malva sylvestris
In short: as §1

purple nutsedge = assay: Test E pre-/postemergence herbicide test; type: in vivo, Cyperus rotundus; settings: Preemergence, scale 0 (no effect) to 100 (complete control)
In short: as §1

Italian ryegrass = assay: Test C postemergence herbicide test; type: in vivo, Lolium multiflorum; settings: postemergence, scale 0 to 100
In short: (§2)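 Scoring by eye, 12–14 days post-treatment, greenhouse-held plants vs. controls; 0 no effect, 100 complete control. Sprayed at 1–4 leaves (2–18 cm); paddy barnyardgrass at 2 leaves, flooded.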

downy bromegrass [2] = assay: Test C postemergence herbicide test; type: in vivo, Bromus tectorum
In short: as §2

canarygrass = assay: Test C postemergence herbicide test; type: in vivo, Phalaris minor
In short: as §2

wheat = assay: Test C postemergence herbicide test; type: in vivo, Triticum aestivum; settings: postemergence, scale 0 to 100
In short: as §2

[3] = Postemergence, 250 g ai/ha, scale 0 to 100
[4] = Preemergence, 62 g ai/ha, scale 0 to 100
[5] = Preemergence, 125 g ai/ha, scale 0 (no effect) to 100 (complete control)
[6] = Preemergence, 250 g ai/ha, scale 0 (no effect) to 100 (complete control)
[7] = Preemergence, 500 g ai/ha, scale 0 (no effect) to 100 (complete control)
[8] = postemergence, 125 g ai/ha, scale 0 to 100
[9] = postemergence, 62 g ai/ha, scale 0 to 100
[10] = Preemergence, 125 g ai/ha, scale 0 to 100
[11] = Postemergence, 250 g ai/ha, scale 0 to 100, 0 no effect, 100 complete control
[12] = postemergence, 31 g ai/ha, scale 0 to 100

## CCNC(=O)c1ccc(F)c(NC(=O)c2cc(C(C)(C)C)nn2CC)c1 [Compound 2, 3-(1,1-dimethylethyl)-1-ethyl-N-[5-[(ethylamino)carbonyl]-2-fluorophenyl]-1H-pyrazole-5-carboxamide]
Downy bromegrass [1]; [3]
  Plant response rating, Bromegrass, Downy: 98
Downy bromegrass [1]; [4]
  Plant response rating, Bromegrass, Downy: 50
Downy bromegrass [1]; [5]
  Plant response rating, Bromegrass, Downy: 90
Downy bromegrass [1]; [6]
  Plant response rating, Bromegrass, Downy: 90
Downy bromegrass [1]; [7]
  Plant response rating, Bromegrass, Downy: 90
Downy bromegrass [1]; [8]
  Plant response rating, Bromegrass, Downy: 75
Downy bromegrass [1]; [9]
  Plant response rating, Bromegrass, Downy: 65
Tropical spiderwort; [3]
  Plant response rating, Spiderwort: 70
Tropical spiderwort; [4]
  Plant response rating, Spiderwort: 20
Tropical spiderwort; [5]
  Plant response rating, Spiderwort: 60
Tropical spiderwort; [6]
  Plant response rating, Spiderwort: 70
Tropical spiderwort; [7]
  Plant response rating, Spiderwort: 100
Tropical spiderwort; [9]
  Plant response rating, Spiderwort: 20
Annual bluegrass; [3]
  Plant response rating, Bluegrass: 100
Annual bluegrass; [4]
  Plant response rating, Bluegrass: 95
Annual bluegrass; [5]
  Plant response rating, Bluegrass: 100
Annual bluegrass; [6]
  Plant response rating, Bluegrass: 100
Annual bluegrass; [7]
  Plant response rating, Bluegrass: 100
Annual bluegrass; [8]
  Plant response rating, Bluegrass: 98
Annual bluegrass; [9]
  Plant response rating, Bluegrass: 90
Russian thistle; 62 g ai/ha, scale 0 to 100
  Plant response rating, Thistle: 50
Russian thistle; 125 g ai/ha, scale 0 to 100
  Plant response rating, Thistle: 60
Russian thistle; 250 g ai/ha, scale 0 (no effect) to 100 (complete control)
  Plant response rating, Thistle: 60
Russian thistle; 500 g ai/ha, scale 0 (no effect) to 100 (complete control)
  Plant response rating, Thistle: 80
Pitted morningglory; [3]
  Plant response rating, Morningglory: 90
Pitted morningglory; [4]
  Plant response rating, Morningglory: 30
Pitted morningglory; [5]
  Plant response rating, Morningglory: 50
Pitted morningglory; [6]
  Plant response rating, Morningglory: 60
Pitted morningglory; [7]
  Plant response rating, Morningglory: 80
Pitted morningglory; [8]
  Plant response rating, Morningglory: 60
goosegrass; [3]
  Plant response rating, Goosegrass: 98
goosegrass; [4]
  Plant response rating, Goosegrass: 80
goosegrass; [5]
  Plant response rating, Goosegrass: 90
goosegrass; [6]
  Plant response rating, Goosegrass: 95
goosegrass; [7]
  Plant response rating, Goosegrass: 95
goosegrass; [8]
  Plant response rating, Goosegrass: 95
goosegrass; [9]
  Plant response rating, Goosegrass: 95
mustard; [3]
  Plant response rating, Black Mustard: 100
mustard; [4]
  Plant response rating, Black Mustard: 60
mustard; [5]
  Plant response rating, Black Mustard: 100
mustard; [6]
  Plant response rating, Black Mustard: 100
mustard; [7]
  Plant response rating, Black Mustard: 100
mustard; [8]
  Plant response rating, Black Mustard: 95
mustard; [9]
  Plant response rating, Black Mustard: 90
johnsongrass; [3]
  Plant response rating, Johnsongrass: 100
johnsongrass; [4]
  Plant response rating, Johnsongrass: 90
johnsongrass; [5]
  Plant response rating, Johnsongrass: 90
johnsongrass; [6]
  Plant response rating, Johnsongrass: 100
johnsongrass; [7]
  Plant response rating, Johnsongrass: 100
johnsongrass; [8]
  Plant response rating, Johnsongrass: 90
johnsongrass; [9]
  Plant response rating, Johnsongrass: 80
Common mallow; [3]
  Plant response rating, Mallow: 80
Common mallow; [4]
  Plant response rating, Mallow: 30
Common mallow; [6]
  Plant response rating, Mallow: 50
Common mallow; [7]
  Plant response rating, Mallow: 80
Common mallow; [8]
  Plant response rating, Mallow: 75
Common mallow; [9]
  Plant response rating, Mallow: 50
Purple nutsedge; 500 g ai/ha
  Plant response rating, Nutsedge, Purple: 95

## Cc1nn(C(C)(C)C)nc1C(=O)Nc1cccc(C(=O)N2CC=CC2)c1 [Compound 393]
Downy bromegrass [1]; [4]
  Plant response rating, Bromegrass, Downy: 0
Downy bromegrass [1]; [10]
  Plant response rating, Bromegrass, Downy: 10
Downy bromegrass [1]; [6]
  Plant response rating, Bromegrass, Downy: 60
Downy bromegrass [1]; [7]
  Plant response rating, Bromegrass, Downy: 80
Tropical spiderwort; [10]
  Plant response rating, Spiderwort: 100
Tropical spiderwort; [6]
  Plant response rating, Spiderwort: 100
Tropical spiderwort; [7]
  Plant response rating, Spiderwort: 100
Annual bluegrass; [4]
  Plant response rating, Bluegrass: 10
Annual bluegrass; [10]
  Plant response rating, Bluegrass: 30
Annual bluegrass; [6]
  Plant response rating, Bluegrass: 75
Annual bluegrass; [7]
  Plant response rating, Bluegrass: 95
Italian ryegrass; 125 g ai/ha
  Plant response rating, Ryegrass, Italian: 60
Italian ryegrass; 62 g ai/ha
  Plant response rating, Ryegrass, Italian: 55
Downy bromegrass [2]; [11]
  Plant response rating, Bromegrass, Downy: 55
Downy bromegrass [2]; [8]
  Plant response rating, Bromegrass, Downy: 45
Downy bromegrass [2]; [12]
  Plant response rating, Bromegrass, Downy: 40
Downy bromegrass [2]; [9]
  Plant response rating, Bromegrass, Downy: 40
Pitted morningglory; [4]
  Plant response rating, Morningglory: 0
Pitted morningglory; [10]
  Plant response rating, Morningglory: 60
Pitted morningglory; [6]
  Plant response rating, Morningglory: 95
Pitted morningglory; [7]
  Plant response rating, Morningglory: 95
goosegrass; [4]
  Plant response rating, Goosegrass: 10
goosegrass; [10]
  Plant response rating, Goosegrass: 50
goosegrass; [6]
  Plant response rating, Goosegrass: 95
goosegrass; [7]
  Plant response rating, Goosegrass: 95
mustard; [4]
  Plant response rating, Black Mustard: 10
mustard; [10]
  Plant response rating, Black Mustard: 80
mustard; [6]
  Plant response rating, Black Mustard: 95
mustard; [7]
  Plant response rating, Black Mustard: 95
canarygrass; [11]
  Plant response rating, Canarygrass: 65
canarygrass; [8]
  Plant response rating, Canarygrass: 65
canarygrass; [12]
  Plant response rating, Canarygrass: 60
canarygrass; [9]
  Plant response rating, Canarygrass: 65
johnsongrass; [4]
  Plant response rating, Johnsongrass: 30
johnsongrass; [10]
  Plant response rating, Johnsongrass: 60
johnsongrass; [6]
  Plant response rating, Johnsongrass: 60
johnsongrass; [7]
  Plant response rating, Johnsongrass: 80
Common mallow; [4]
  Plant response rating, Mallow: 10
Common mallow; [10]
  Plant response rating, Mallow: 60
Common mallow; [6]
  Plant response rating, Mallow: 95
Common mallow; [7]
  Plant response rating, Mallow: 95
Purple nutsedge; 250 g ai/ha
  Plant response rating, Nutsedge, Purple: 20
Purple nutsedge; 500 g ai/ha
  Plant response rating, Nutsedge, Purple: 100
wheat; 125 g ai/ha
  Plant response rating, Wheat: 40
wheat; 62 g ai/ha
  Plant response rating, Wheat: 35

— US20060069132A1, “Azolecarboxamide herbicides” (priority 2004, published 2006)
